Test results: patent US4879212A, “Peptide composition and method for the detection of antibodies to HTLV-III” (United Biomedical Inc., priority 1987, dated 1989)
Ends that are not written are not given here.

How the values were obtained:
antibodies to HTLV-III [1] = system: antibodies to HTLV-III
Text: A third problem which has plagued this area is the possibility of false negative results.
where A492 (RC) is the absorbance reading for the reactive control and A492 (NRC) is the absorbance reading for the non-reactive control.

anti HTLV-III antibodies = assay: Immunoreactivity of peptides at 1 ug per well in ELISA with pooled AIDS serum, relative to 21mer peptide; assay type: binding, human; details: for Reactivity %: 1 ug per well, pooled AIDS serum sample, 21mer peptide set as 100%
Text: Various peptide analogs based on the above described amino acid sequence have been prepared. These analogs and their reactivities with the anti HTLV-III antibodies present in sera of AIDS and ARC patients are described in Example 8 and Table III. The reactivity in an ELISA test for the same amount of each peptide by weight per volume was compared with the reactivity of the 21mer peptide, which was assigned a reactivity of 100.
The 35mer peptide, 19mer peptide, 11mer peptide and eight analogues of the 21mer peptide, and overlapping 19mer peptide were prepared in their amide form according to the classical Merrifield method described herein above.
The immunoreactivity of the various peptides at 1 ug per well level was tested using a pooled AIDS serum sample. The reactivity of each peptide was compared with the reactivity of the 21mer peptide which was set as 100%.

antibodies to HTLV-III [2] = assay type: binding, human; details: screened out from over 500 HTLV III positive AIDS serum specimens
Experimental: Following the procedure described in Example 1, mixtures of the 21mer peptide with the 19mer peptide with various weight ratios, from 10:1.25 to 4:1, were used as the immunoadsorbent. The wells were coated with 1 ug of the mixture. The serum samples used were two samples from patients which had been diagnosed as positive for AIDS and two samples from patients with autoimmune diseases. The two AIDS positive samples were screened out from over 500 HTLV III positive AIDS serum specimens and had been showned to be negative in ELISA using only the 21mer peptide as the immunoadsorbent.

antibodies to HTLV-III [3] = details: cited from earlier work

Substance | serum samples positive by Western Blot Analysis giving negative results (antibodies to HTLV-III [1]; 12 out of 449) | accuracy of the results (antibodies to HTLV-III [1]; cutoff point=0.1xA492 (RC)+1xA492 (NRC)) | serum samples positive by Western Blot Analysis giving negative results, out of 449 (antibodies to HTLV-III [1]; mostly at the later stage of AIDS) | Reactivity % (anti HTLV-III antibodies) | ELISA result of the two AIDS positive samples (antibodies to HTLV-III [2]) | immunoreactivity (in words) (antibodies to HTLV-III [3]) | immunoreactivity (in words) (anti HTLV-III antibodies; observed from Table III)
Arg--Ile--Leu--Ala--Val--Glu--Arg--Tyr--Leu--Lys--Asp--Gln--Gln--Leu--Leu--Gly--Ile--Trp--Gly--Cys--Ser [Peptide 6] | about 2.67% | about 98% | 12 | 100% | negative |  | 
Arg-Ile-Leu-Ala-Val-Glu-Arg-Tyr-Leu-Lys-Asp-Gln-Gln-Leu--Leu-Gly-Ile-Trp-Gly-Cys-Ser-Gly-Lys-Leu-Ile-Cys-X |  |  |  |  |  | not as good as the deactivated virus | 
RILAVERYKLDQQLLGIWGCSGKLICTTAVPWNAS (cysteine pairing not given here) [Peptide 17] |  |  |  | 132.0% |  |  | highest immunoreactivity
